Data as given in ChEMBL document CHEMBL4184197 (Bioorg Med Chem, 2018).

Columns and labels:
[1] = test system: CHO-K1; test: Genotoxicity in CHOK1 cells in presence of rat liver S9 fraction by fluorescence imaging based micronucleus assay; format: toxicity, cell-based, Cricetulus griseus; details: chinese hamster
[2] = molecular target: Adenosine receptor A3 (Homo sapiens) (UniProt P0DMS8); test: Binding affinity to recombinant human A3 receptor at 10 uM after 120 mins by scintillation counting analysis relative to control
Sequence of Adenosine receptor A3 (Homo sapiens) (P0DMS8 whole entry): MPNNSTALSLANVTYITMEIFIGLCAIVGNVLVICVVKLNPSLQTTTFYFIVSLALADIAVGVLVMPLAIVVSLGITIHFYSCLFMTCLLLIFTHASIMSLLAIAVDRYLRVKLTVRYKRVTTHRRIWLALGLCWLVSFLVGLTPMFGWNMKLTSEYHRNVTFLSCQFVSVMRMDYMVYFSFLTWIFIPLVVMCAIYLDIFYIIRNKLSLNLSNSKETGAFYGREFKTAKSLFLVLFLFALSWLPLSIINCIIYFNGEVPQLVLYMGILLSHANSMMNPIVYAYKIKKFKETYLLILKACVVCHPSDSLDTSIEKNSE

[3] = molecular target: Adrenergic receptor alpha-2 (Homo sapiens) (UniProt P08913+P18825+P18089); test: Binding affinity to alpha2 receptor (unknown origin) at 10 uM relative to control; format: protein assay
[4] = molecular target: Beta-2 adrenergic receptor (Homo sapiens) (UniProt P07550); test: Binding affinity to recombinant human beta2 receptor at 10 uM after 120 mins by scintillation counting analysis relative to control
Sequence of Beta-2 adrenergic receptor (Homo sapiens) (P07550 whole entry, looked up): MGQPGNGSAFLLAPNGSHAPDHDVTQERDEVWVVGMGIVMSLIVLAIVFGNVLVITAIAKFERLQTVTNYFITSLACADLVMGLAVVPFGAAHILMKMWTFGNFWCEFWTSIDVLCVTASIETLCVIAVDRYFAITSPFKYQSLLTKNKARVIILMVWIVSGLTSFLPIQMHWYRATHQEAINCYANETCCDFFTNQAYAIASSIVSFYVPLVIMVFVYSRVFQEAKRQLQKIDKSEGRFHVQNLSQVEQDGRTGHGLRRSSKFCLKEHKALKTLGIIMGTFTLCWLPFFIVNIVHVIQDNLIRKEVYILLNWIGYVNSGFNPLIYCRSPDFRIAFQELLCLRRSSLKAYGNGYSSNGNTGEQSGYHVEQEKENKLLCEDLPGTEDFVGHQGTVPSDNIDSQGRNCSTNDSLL

[5] = molecular target: Type-2 angiotensin II receptor (Homo sapiens) (UniProt P50052); test: Binding affinity to recombinant human AT2 receptor at 10 uM after 240 mins by scintillation counting analysis relative to control
[6] = species: Homo sapiens; test: Binding affinity to central-type benzodiazepine receptor (unknown origin) at 10 uM relative to control
[7] = molecular target: Translocator protein (Homo sapiens) (UniProt P30536); test: Binding affinity to peripheral-type benzodiazepine receptor (unknown origin) at 10 uM relative to control
[8] = molecular target: Cannabinoid receptor 1 (Homo sapiens) (UniProt P21554); test: Binding affinity to recombinant human CB1 at 10 uM after 120 mins by scintillation counting analysis relative to control
Sequence of Cannabinoid receptor 1 (Homo sapiens) (P21554 whole entry): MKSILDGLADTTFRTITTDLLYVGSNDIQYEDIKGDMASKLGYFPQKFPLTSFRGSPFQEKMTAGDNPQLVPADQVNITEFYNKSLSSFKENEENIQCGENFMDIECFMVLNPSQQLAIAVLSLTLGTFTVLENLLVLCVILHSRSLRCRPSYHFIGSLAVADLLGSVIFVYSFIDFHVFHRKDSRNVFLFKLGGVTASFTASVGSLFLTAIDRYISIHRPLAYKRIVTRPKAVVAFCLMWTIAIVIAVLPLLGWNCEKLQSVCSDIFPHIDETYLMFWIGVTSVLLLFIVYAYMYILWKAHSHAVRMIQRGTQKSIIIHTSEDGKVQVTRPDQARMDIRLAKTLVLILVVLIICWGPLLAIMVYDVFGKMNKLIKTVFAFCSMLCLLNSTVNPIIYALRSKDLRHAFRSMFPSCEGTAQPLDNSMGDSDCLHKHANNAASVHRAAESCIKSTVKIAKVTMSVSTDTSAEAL

[9] = molecular target: Cholecystokinin receptor type A (Homo sapiens) (UniProt P32238); test: Binding affinity to recombinant human CCK1 at 10 uM after 60 mins by scintillation counting analysis relative to control
[10] = molecular target: Gastrin/cholecystokinin type B receptor (Homo sapiens) (UniProt P32239); test: Binding affinity to recombinant human CCK2 at 10 uM after 60 mins by scintillation counting analysis relative to control
[11] = molecular target: D(2) dopamine receptor (Homo sapiens) (UniProt P14416); test: Binding affinity to recombinant human dopamine receptor D2S at 10 uM after 60 mins by scintillation counting analysis relative to control
Sequence of D(2) dopamine receptor (Homo sapiens) (P14416 whole entry): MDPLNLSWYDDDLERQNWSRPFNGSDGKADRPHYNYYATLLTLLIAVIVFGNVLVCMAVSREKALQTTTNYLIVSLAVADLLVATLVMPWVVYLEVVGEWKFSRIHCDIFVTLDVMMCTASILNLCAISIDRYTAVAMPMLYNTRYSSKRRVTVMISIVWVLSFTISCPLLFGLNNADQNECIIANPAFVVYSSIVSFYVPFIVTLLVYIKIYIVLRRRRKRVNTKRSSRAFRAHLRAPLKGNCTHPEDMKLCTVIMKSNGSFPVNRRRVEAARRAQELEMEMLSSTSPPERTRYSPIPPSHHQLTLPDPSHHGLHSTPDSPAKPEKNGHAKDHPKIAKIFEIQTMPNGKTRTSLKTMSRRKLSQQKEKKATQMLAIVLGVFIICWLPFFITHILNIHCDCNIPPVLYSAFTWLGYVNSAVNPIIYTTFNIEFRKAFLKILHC

[12] = species: Homo sapiens; test: Binding affinity to recombinant human dopamine receptor D4.4 at 10 uM after 60 mins by scintillation counting analysis relative to control
[13] = molecular target: Galanin receptor type 2 (Homo sapiens) (UniProt O43603); test: Binding affinity to recombinant human GAL2 receptor at 10 uM after 120 mins by scintillation counting analysis relative to control
Sequence of Galanin receptor type 2 (Homo sapiens) (O43603 whole entry): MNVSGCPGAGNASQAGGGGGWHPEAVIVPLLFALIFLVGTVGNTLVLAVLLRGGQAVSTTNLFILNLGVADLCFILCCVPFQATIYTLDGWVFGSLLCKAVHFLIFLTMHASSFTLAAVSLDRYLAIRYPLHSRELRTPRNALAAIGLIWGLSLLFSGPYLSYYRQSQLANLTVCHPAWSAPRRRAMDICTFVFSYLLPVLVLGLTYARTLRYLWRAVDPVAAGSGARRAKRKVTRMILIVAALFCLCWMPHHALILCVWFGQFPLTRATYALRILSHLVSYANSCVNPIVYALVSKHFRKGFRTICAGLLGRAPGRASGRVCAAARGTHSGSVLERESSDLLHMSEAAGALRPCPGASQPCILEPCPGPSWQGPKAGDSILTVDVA

[14] = molecular target: C-X-C chemokine receptor type 2 (Homo sapiens) (UniProt P25025); test: Binding affinity to recombinant human CXCR2 receptor at 10 uM after 60 mins by scintillation counting analysis relative to control
[15] = molecular target: Melatonin receptor type 1A (Homo sapiens) (UniProt P48039); test: Binding affinity to recombinant human MT1 receptor at 10 uM after 240 mins by scintillation counting analysis relative to control
[16] = molecular target: Muscarinic acetylcholine receptor M3 (Homo sapiens) (UniProt P20309); test: Binding affinity to recombinant human muscarinic M3 receptor at 10 uM after 60 mins by scintillation counting analysis relative to control
Sequence of Muscarinic acetylcholine receptor M3 (Homo sapiens) (P20309 whole entry, looked up): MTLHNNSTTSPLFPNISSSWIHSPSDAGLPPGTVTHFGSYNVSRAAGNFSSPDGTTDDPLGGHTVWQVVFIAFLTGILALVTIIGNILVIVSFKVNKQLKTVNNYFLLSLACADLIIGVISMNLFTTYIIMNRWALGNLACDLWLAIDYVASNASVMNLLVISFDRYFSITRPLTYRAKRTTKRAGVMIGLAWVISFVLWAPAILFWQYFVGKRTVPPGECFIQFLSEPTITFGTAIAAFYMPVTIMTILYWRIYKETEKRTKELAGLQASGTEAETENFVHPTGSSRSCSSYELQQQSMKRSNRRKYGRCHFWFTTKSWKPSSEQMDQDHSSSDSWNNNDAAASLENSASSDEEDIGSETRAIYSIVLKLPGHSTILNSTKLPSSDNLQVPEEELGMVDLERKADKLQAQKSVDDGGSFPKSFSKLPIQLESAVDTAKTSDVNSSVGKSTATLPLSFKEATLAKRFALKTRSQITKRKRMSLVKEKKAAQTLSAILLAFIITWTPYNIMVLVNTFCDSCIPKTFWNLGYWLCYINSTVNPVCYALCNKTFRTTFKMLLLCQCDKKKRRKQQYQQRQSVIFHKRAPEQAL

[17] = molecular target: Muscarinic acetylcholine receptor M5 (Homo sapiens) (UniProt P08912); test: Binding affinity to recombinant human muscarinic M5 receptor at 10 uM after 60 mins by scintillation counting analysis relative to control
[18] = molecular target: Neuropeptide Y receptor type 1 (Homo sapiens) (UniProt P25929); test: Binding affinity to human Y1 receptor at 10 uM after 120 mins by scintillation counting analysis relative to control
[19] = molecular target: Neurotensin receptor type 1 (Homo sapiens) (UniProt P30989); test: Binding affinity to recombinant human NT1 receptor at 10 uM after 60 mins by scintillation counting analysis relative to control
[20] = species: Homo sapiens; test: Binding affinity to delta-2-opioid receptor (unknown origin) at 10 uM relative to control
[21] = molecular target: Mu-type opioid receptor (Homo sapiens) (UniProt P35372); test: Binding affinity to recombinant human mu opioid receptor at 10 uM after 120 mins by scintillation counting analysis relative to control
Sequence of Mu-type opioid receptor (Homo sapiens) (P35372 whole entry): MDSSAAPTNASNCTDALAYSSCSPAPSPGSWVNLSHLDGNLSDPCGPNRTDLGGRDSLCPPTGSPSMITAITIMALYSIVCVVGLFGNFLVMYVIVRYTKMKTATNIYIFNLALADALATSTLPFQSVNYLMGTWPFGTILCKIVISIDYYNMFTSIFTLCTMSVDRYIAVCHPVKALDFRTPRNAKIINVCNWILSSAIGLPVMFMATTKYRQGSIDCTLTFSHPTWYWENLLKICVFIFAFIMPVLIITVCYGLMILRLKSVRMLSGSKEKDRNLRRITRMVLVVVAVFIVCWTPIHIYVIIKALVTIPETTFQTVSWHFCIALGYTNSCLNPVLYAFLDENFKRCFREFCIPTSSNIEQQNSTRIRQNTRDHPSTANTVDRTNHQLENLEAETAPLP

[22] = molecular target: Prostaglandin E2 receptor EP2 subtype (Homo sapiens) (UniProt P43116); test: Binding affinity to recombinant human EP2 receptor at 10 uM after 120 mins by scintillation counting analysis relative to control
[23] = molecular target: Prostaglandin E2 receptor EP4 subtype (Homo sapiens) (UniProt P35408); test: Binding affinity to recombinant human EP4 receptor at 10 uM after 120 mins by scintillation counting analysis relative to control
Sequence of Prostaglandin E2 receptor EP4 subtype (Homo sapiens) (P35408 whole entry): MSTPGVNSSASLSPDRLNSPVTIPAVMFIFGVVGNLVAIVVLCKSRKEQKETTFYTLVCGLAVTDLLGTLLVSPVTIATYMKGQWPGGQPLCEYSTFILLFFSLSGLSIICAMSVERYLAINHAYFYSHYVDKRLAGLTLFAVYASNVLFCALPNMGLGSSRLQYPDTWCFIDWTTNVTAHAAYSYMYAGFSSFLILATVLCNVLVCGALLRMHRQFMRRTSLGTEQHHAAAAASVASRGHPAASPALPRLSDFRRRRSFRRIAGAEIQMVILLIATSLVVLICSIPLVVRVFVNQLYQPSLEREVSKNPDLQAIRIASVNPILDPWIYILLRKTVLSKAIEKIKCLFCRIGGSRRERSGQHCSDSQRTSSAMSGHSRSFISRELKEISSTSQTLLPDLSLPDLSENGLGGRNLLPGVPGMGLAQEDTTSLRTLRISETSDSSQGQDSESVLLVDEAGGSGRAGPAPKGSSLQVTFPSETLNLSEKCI

[24] = species: Homo sapiens; test: Binding affinity to P2X receptor (unknown origin) at 10 uM relative to control
[25] = molecular target: 5-hydroxytryptamine receptor 3A (Homo sapiens) (UniProt P46098); test: Binding affinity to recombinant human 5-HT3 receptor at 10 uM after 120 mins by scintillation counting analysis relative to control
[26] = species: Rattus norvegicus; test: Binding affinity to rat SKCa channel at 10 uM after 60 mins by scintillation counting analysis relative to control
[27] = species: Homo sapiens; test: Binding affinity to chloride channel (unknown origin) at 10 uM relative to control
[28] = molecular target: Nitric oxide synthase, inducible (Mus musculus) (UniProt P29477); test: Binding affinity to recombinant mouse iNOS at 10 uM after 120 mins by spectrophotometric analysis relative to control
[29] = species: Bos taurus; test: Binding affinity to bovine PDE6 at 10 uM after 60 mins by scintillation counting analysis relative to control
[30] = molecular target: Beta-secretase 2 (Homo sapiens) (UniProt Q9Y5Z0); test: Binding affinity to BACE-2 (unknown origin) at 10 uM relative to control
[31] = molecular target: Endothelin-converting enzyme 1 (Homo sapiens) (UniProt P42892); test: Binding affinity to ECE-1 (unknown origin) at 10 uM relative to control
[32] = species: Homo sapiens; test: Binding affinity to elastase (unknown origin) at 10 uM relative to control
[33] = molecular target: Caspase-8 (Homo sapiens) (UniProt Q14790); test: Binding affinity to recombinant human caspase 8 at 10 uM after 45 mins by fluorescence assay relative to control
Sequence of Caspase-8 (Homo sapiens) (Q14790 217-374 limits assumed): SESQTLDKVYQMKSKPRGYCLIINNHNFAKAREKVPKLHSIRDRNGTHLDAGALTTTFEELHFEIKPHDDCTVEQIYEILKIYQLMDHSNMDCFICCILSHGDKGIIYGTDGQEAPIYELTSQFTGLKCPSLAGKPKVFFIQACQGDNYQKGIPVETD
Sequence of Caspase-8 (Homo sapiens) (Q14790 385-479 limits assumed): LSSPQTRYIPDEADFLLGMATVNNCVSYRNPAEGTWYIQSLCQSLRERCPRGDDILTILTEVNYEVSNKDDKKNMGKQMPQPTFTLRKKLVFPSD

[34] = molecular target: Neprilysin (Homo sapiens) (UniProt P08473); test: Binding affinity to neutral endopeptidase (unknown origin) at 10 uM by relative to control
[35] = molecular target: Tryptase (Homo sapiens) (UniProt Q9BZJ3+Q15661+Q9NRR2); test: Binding affinity to human tryptase at 10 uM after 8 mins by spectrophotometric analysis relative to control; format: protein assay
[36] = molecular target: Proto-oncogene tyrosine-protein kinase Src (Homo sapiens) (UniProt P12931); test: Binding affinity to recombinant human Src at 10 uM after 10 mins by LANCE assay relative to control
Sequence of Proto-oncogene tyrosine-protein kinase Src (Homo sapiens) (P12931 2-536 limits assumed): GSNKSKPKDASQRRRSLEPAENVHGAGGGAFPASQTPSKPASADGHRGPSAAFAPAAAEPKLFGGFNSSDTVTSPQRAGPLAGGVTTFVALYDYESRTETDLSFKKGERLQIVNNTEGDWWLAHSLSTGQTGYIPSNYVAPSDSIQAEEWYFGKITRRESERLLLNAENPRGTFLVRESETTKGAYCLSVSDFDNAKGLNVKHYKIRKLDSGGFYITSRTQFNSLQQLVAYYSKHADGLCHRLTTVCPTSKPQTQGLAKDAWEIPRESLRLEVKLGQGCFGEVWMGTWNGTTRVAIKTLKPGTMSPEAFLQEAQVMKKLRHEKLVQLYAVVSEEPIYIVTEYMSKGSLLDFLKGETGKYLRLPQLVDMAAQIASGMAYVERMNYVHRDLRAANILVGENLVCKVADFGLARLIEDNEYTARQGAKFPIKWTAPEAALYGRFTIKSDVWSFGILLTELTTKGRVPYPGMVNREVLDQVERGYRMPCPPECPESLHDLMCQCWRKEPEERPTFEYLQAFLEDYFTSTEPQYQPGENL

[37] = molecular target: Acetylcholinesterase (Homo sapiens) (UniProt P22303); test: Binding affinity to recombinant human acetylcholinesterase at 10 uM after 30 mins by spectrophotometric analysis relative to control
Sequence of Acetylcholinesterase (Homo sapiens) (P22303 whole entry): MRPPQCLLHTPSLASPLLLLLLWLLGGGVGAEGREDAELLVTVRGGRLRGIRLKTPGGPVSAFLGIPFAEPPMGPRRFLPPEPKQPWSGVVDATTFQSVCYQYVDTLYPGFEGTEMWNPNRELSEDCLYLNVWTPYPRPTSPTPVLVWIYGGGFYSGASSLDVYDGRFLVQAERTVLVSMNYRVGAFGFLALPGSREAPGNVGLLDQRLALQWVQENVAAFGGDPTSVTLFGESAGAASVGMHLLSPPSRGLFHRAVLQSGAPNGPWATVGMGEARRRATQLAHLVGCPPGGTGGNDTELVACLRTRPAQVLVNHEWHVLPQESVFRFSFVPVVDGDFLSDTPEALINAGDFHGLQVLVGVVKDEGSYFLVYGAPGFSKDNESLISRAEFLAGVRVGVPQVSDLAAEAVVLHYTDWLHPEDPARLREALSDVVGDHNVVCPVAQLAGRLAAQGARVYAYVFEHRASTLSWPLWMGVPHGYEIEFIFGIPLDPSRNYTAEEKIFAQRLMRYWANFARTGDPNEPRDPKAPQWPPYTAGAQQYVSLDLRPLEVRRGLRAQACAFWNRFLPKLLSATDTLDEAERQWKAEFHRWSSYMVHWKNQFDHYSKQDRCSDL

[38] = molecular target: MAO-A (Homo sapiens, UniProt P21397); test: Binding affinity to human MAO-A at 10 uM after 20 mins by spectrophotometric analysis relative to control; details: read-out: Activity

CCOc1c(Cl)cc(C(=O)Nc2ccc(C(=O)O)c(C)c2)cc1OC(C)C
Activity [1]: Non-Toxic
Activity [2]: < 25%
Activity [3]: < 25%
Activity [4]: < 25%
Activity [5]: < 25%
Activity [6]: < 25%
Activity [7]: < 25%
Activity [8]: < 25%
Activity [9]: < 25%
Activity [10]: < 25%
Activity [11]: < 25%
Activity [12]: < 25%
Activity [13]: < 25%
Activity [14]: < 25%
Activity [15]: < 25%
Activity [16]: < 25%
Activity [17]: < 25%
Activity [18]: < 25%
Activity [19]: < 25%
Activity [20]: < 25%
Activity [21]: < 25%
Activity [22]: < 25%
Activity [23]: < 25%
Activity [24]: < 25%
Activity [25]: < 25%
Activity [26]: < 25%
Activity [27]: < 25%
Activity [28]: < 25%
Activity [29]: < 25%
Activity [30]: < 25%
Activity [31]: < 25%
Activity [32]: < 25%
Activity [33]: < 25%
Activity [34]: < 25%
Activity [35]: < 25%
Activity [36]: < 25%
Activity [37]: < 25%
activity at 20 min, 10 µM [38]: ≤ 25%
